The values that follow are results of earlier work, collected in US10138221B2, “Salts of nilotinib and polymorphs thereof” (Sun Pharmaceutical Industries Limited, priority 2014, dated 2018).

Each structure is given as a SMILES string. Like-named read-outs stand apart in the source and are kept apart here.

The conditions of data set [1]: low solubility/low permeability.

Take `Cc1cn(-c2cc(NC(=O)c3ccc(C)c(Nc4nccc(-c5cccnc5)n4)c3)cc(C(F)(F)F)c2)cn1` [Nilotinib, 4-methyl-N-[3-(4-methyl-1H-imidazol-1-yl)-5-(trifluoromethyl)phenyl]-3-[[4-(3-pyridinyl)-2-pyrimidinyl]amino]-benzamide]: the “Biopharmaceutics Classification System (BCS) class (solubility/permeability)” value in data set [1] is recorded as “class IV”. Moreover, the solubility entry (acidic media) was “soluble”; the solubility result (buffer solutions of pH 4.5 and higher) is “practically insoluble”.
